# ChEMBL document CHEMBL1146892, “Pyrrolidine bis-cyclic guanidines with antimicrobial activity against drug-resistant Gram-positive pathogens identified from a mixture-based combinatorial library” (2006)
# Columns and labels:
# Format in all cases: functional
# Enterococcus faecalis = assay: Antibacterial activity against vancomycin-resistant Enterococcus faecalis ATCC 51299
# Escherichia coli = assay: Antibacterial activity against Escherichia coli ATCC 25922
# Staphylococcus aureus = assay: Antibacterial activity against methicillin-resistant Staphylococcus aureus ATCC 33591
smiles,measurement,setting,value
CC(C)Cc1ccc(C(C)CN2C(=N)N([C@@H](CC3CCCCC3)CN3CCCC3CN3C(N)=NC[C@@H]3Cc3ccccc3)C[C@@H]2CC2CCCCC2)cc1 (some centres not stated),MBC,Enterococcus faecalis,< 2.5 µg/mL
same,MIC,Enterococcus faecalis,< 2.5 µg/mL
same,MBC,Escherichia coli,> 10 µg/mL
same,MIC,Escherichia coli,> 10 µg/mL
same,MBC,Staphylococcus aureus,< 2.5 µg/mL
same,MIC,Staphylococcus aureus,< 2.5 µg/mL
C[C@H]1CN=C(N)N1CC1CCCN1C[C@@H](CC1CCCCC1)N1C[C@H](CC2CCCCC2)N(CCc2cc(C(F)(F)F)cc(C(F)(F)F)c2)C1=N (some centres not stated),MBC,Enterococcus faecalis,2.5 µg/mL
same,MIC,Enterococcus faecalis,< 2.5 µg/mL
same,MBC,Escherichia coli,5 µg/mL
same,MIC,Escherichia coli,5 µg/mL
same,MBC,Staphylococcus aureus,2.5 µg/mL
same,MIC,Staphylococcus aureus,< 2.5 µg/mL
CC(C)Cc1ccc(C(C)CN2C(=N)N([C@H](Cc3ccc4ccccc4c3)CN3CCCC3CN3C(N)=NC[C@@H]3Cc3ccccc3)C[C@@H]2CC2CCCCC2)cc1 (some centres not stated),MBC,Enterococcus faecalis,> 10 µg/mL
same,MIC,Enterococcus faecalis,< 2.5 µg/mL
same,MBC,Escherichia coli,> 10 µg/mL
same,MIC,Escherichia coli,> 10 µg/mL
same,MBC,Staphylococcus aureus,< 2.5 µg/mL
same,MIC,Staphylococcus aureus,< 2.5 µg/mL
C[C@H]1CN=C(N)N1CC1CCCN1C[C@@H](Cc1ccc2ccccc2c1)N1C[C@@H](CC2CCCCC2)N(CCc2cc(C(F)(F)F)cc(C(F)(F)F)c2)C1=N (some centres not stated),MBC,Enterococcus faecalis,< 2.5 µg/mL
same,MIC,Enterococcus faecalis,< 2.5 µg/mL
same,MBC,Escherichia coli,> 10 µg/mL
same,MIC,Escherichia coli,> 10 µg/mL
same,MBC,Staphylococcus aureus,< 2.5 µg/mL
same,MIC,Staphylococcus aureus,< 2.5 µg/mL
C[C@H]1CN=C(N)N1CC1CCCN1C[C@@H](Cc1ccc2ccccc2c1)N1C[C@H](CC2CCCCC2)N(CCc2cc(C(F)(F)F)cc(C(F)(F)F)c2)C1=N (some centres not stated),MBC,Enterococcus faecalis,< 2.5 µg/mL
same,MIC,Enterococcus faecalis,< 2.5 µg/mL
same,MBC,Escherichia coli,5 µg/mL
same,MIC,Escherichia coli,5 µg/mL
same,MBC,Staphylococcus aureus,< 2.5 µg/mL
same,MIC,Staphylococcus aureus,< 2.5 µg/mL
CC(C)Cc1ccc(C(C)CN2C(=N)N([C@H](CC3CCCCC3)CN3CCCC3CN3C(N)=NC[C@@H]3C)C[C@@H]2CC2CCCCC2)cc1 (some centres not stated),MBC,Enterococcus faecalis,> 10 µg/mL
same,MIC,Enterococcus faecalis,< 2.5 µg/mL
same,MBC,Escherichia coli,5 µg/mL
same,MIC,Escherichia coli,5 µg/mL
same,MBC,Staphylococcus aureus,< 2.5 µg/mL
same,MIC,Staphylococcus aureus,< 2.5 µg/mL
CCCC[C@@H]1CN([C@H](CC2CCCCC2)CN2CCCC2CN2C(N)=NC[C@@H]2C)C(=N)N1CC(C)c1ccc(CC(C)C)cc1 (some centres not stated),MBC,Enterococcus faecalis,> 10 µg/mL
same,MIC,Enterococcus faecalis,< 2.5 µg/mL
same,MBC,Escherichia coli,> 10 µg/mL
same,MIC,Escherichia coli,> 10 µg/mL
same,MBC,Staphylococcus aureus,2.5 µg/mL
same,MIC,Staphylococcus aureus,< 2.5 µg/mL
N=C1N(CCc2cc(C(F)(F)F)cc(C(F)(F)F)c2)[C@@H](CC2CCCCC2)CN1[C@H](CC1CCCCC1)CN1CCCC1CN1C(N)=NC[C@@H]1Cc1ccccc1 (some centres not stated),MBC,Enterococcus faecalis,> 10 µg/mL
same,MIC,Enterococcus faecalis,2.5 µg/mL
same,MBC,Escherichia coli,> 10 µg/mL
same,MIC,Escherichia coli,> 10 µg/mL
same,MBC,Staphylococcus aureus,< 2.5 µg/mL
same,MIC,Staphylococcus aureus,< 2.5 µg/mL
CC(C)Cc1ccc(C(C)CN2C(=N)N([C@H](Cc3ccc4ccccc4c3)CN3CCCC3CN3C(N)=NC[C@@H]3C)C[C@H]2CC2CCCCC2)cc1 (some centres not stated),MBC,Enterococcus faecalis,< 2.5 µg/mL
same,MIC,Enterococcus faecalis,< 2.5 µg/mL
same,MBC,Escherichia coli,> 10 µg/mL
same,MIC,Escherichia coli,> 10 µg/mL
same,MBC,Staphylococcus aureus,< 2.5 µg/mL
same,MIC,Staphylococcus aureus,< 2.5 µg/mL
N=C1N(CCc2cc(C(F)(F)F)cc(C(F)(F)F)c2)[C@H](CC2CCCCC2)CN1[C@H](Cc1ccc2ccccc2c1)CN1CCCC1CN1C(N)=NC[C@@H]1Cc1ccccc1 (some centres not stated),MBC,Enterococcus faecalis,> 10 µg/mL
same,MIC,Enterococcus faecalis,< 2.5 µg/mL
same,MBC,Escherichia coli,> 10 µg/mL
same,MIC,Escherichia coli,> 10 µg/mL
same,MBC,Staphylococcus aureus,2.5 µg/mL
same,MIC,Staphylococcus aureus,< 2.5 µg/mL
CCCC[C@@H]1CN([C@H](Cc2ccc3ccccc3c2)CN2CCCC2CN2C(N)=NC[C@@H]2C)C(=N)N1CCc1cc(C(F)(F)F)cc(C(F)(F)F)c1 (some centres not stated),MBC,Enterococcus faecalis,> 10 µg/mL
same,MIC,Enterococcus faecalis,< 2.5 µg/mL
same,MBC,Escherichia coli,> 10 µg/mL
same,MIC,Escherichia coli,> 10 µg/mL
same,MBC,Staphylococcus aureus,2.5 µg/mL
same,MIC,Staphylococcus aureus,< 2.5 µg/mL
C[C@H]1CN=C(N)N1CC1CCCN1C[C@H](CC1CCCCC1)N1C[C@@H](CC2CCCCC2)N(CCc2cc(C(F)(F)F)cc(C(F)(F)F)c2)C1=N (some centres not stated),MBC,Enterococcus faecalis,> 10 µg/mL
same,MIC,Enterococcus faecalis,< 2.5 µg/mL
same,MBC,Escherichia coli,> 10 µg/mL
same,MIC,Escherichia coli,> 10 µg/mL
same,MBC,Staphylococcus aureus,< 2.5 µg/mL
same,MIC,Staphylococcus aureus,< 2.5 µg/mL
CCCC[C@@H]1CN([C@H](CC2CCCCC2)CN2CCCC2CN2C(N)=NC[C@@H]2C)C(=N)N1CCc1cc(C(F)(F)F)cc(C(F)(F)F)c1 (some centres not stated),MBC,Enterococcus faecalis,> 10 µg/mL
same,MIC,Enterococcus faecalis,> 10 µg/mL
same,MBC,Escherichia coli,> 10 µg/mL
same,MIC,Escherichia coli,> 10 µg/mL
same,MBC,Staphylococcus aureus,< 2.5 µg/mL
same,MIC,Staphylococcus aureus,< 2.5 µg/mL
CCCC[C@@H]1CN([C@@H](CC2CCCCC2)CN2CCCC2CN2C(N)=NC[C@@H]2C)C(=N)N1CC(C)c1ccc(CC(C)C)cc1 (some centres not stated),MBC,Enterococcus faecalis,> 10 µg/mL
same,MIC,Enterococcus faecalis,< 2.5 µg/mL
same,MBC,Escherichia coli,> 10 µg/mL
same,MIC,Escherichia coli,> 10 µg/mL
same,MBC,Staphylococcus aureus,2.5 µg/mL
same,MIC,Staphylococcus aureus,2.5 µg/mL
CCCC[C@@H]1CN([C@H](Cc2ccc3ccccc3c2)CN2CCCC2CN2C(N)=NC[C@@H]2C)C(=N)N1CC(C)c1ccc(CC(C)C)cc1 (some centres not stated),MBC,Enterococcus faecalis,2 µg/mL
same,MIC,Enterococcus faecalis,< 2.5 µg/mL
same,MBC,Escherichia coli,5 µg/mL
same,MIC,Escherichia coli,5 µg/mL
same,MBC,Staphylococcus aureus,2.5 µg/mL
same,MIC,Staphylococcus aureus,2.5 µg/mL
N=C1N(CCc2cc(C(F)(F)F)cc(C(F)(F)F)c2)[C@H](CC2CCCCC2)CN1[C@H](CC1CCCCC1)CN1CCCC1CN1C(N)=NC[C@@H]1Cc1ccccc1 (some centres not stated),MBC,Enterococcus faecalis,2.5 µg/mL
same,MIC,Enterococcus faecalis,2.5 µg/mL
same,MBC,Escherichia coli,> 10 µg/mL
same,MIC,Escherichia coli,> 10 µg/mL
same,MBC,Staphylococcus aureus,< 2.5 µg/mL
same,MIC,Staphylococcus aureus,< 2.5 µg/mL
CC(C)Cc1ccc(C(C)CN2C(=N)N([C@@H](CC3CCCCC3)CN3CCCC3CN3C(N)=NC[C@@H]3C)C[C@H]2CC2CCCCC2)cc1 (some centres not stated),MBC,Enterococcus faecalis,> 10 µg/mL
same,MIC,Enterococcus faecalis,< 2.5 µg/mL
same,MBC,Escherichia coli,> 10 µg/mL
same,MIC,Escherichia coli,> 10 µg/mL
same,MBC,Staphylococcus aureus,< 2.5 µg/mL
same,MIC,Staphylococcus aureus,< 2.5 µg/mL
CC(C)Cc1ccc(C(C)CN2C(=N)N([C@H](Cc3ccc4ccccc4c3)CN3CCCC3CN3C(N)=NC[C@@H]3Cc3ccccc3)C[C@H]2CC2CCCCC2)cc1 (some centres not stated),MBC,Enterococcus faecalis,> 10 µg/mL
same,MIC,Enterococcus faecalis,< 2.5 µg/mL
same,MBC,Escherichia coli,> 10 µg/mL
same,MIC,Escherichia coli,> 10 µg/mL
same,MBC,Staphylococcus aureus,2.5 µg/mL
same,MIC,Staphylococcus aureus,< 2.5 µg/mL
CC(C)Cc1ccc(C(C)CN2C(=N)N([C@H](CC3CCCCC3)CN3CCCC3CN3C(N)=NC[C@@H]3Cc3ccccc3)C[C@@H]2CC2CCCCC2)cc1 (some centres not stated),MBC,Enterococcus faecalis,> 10 µg/mL
same,MIC,Enterococcus faecalis,< 2.5 µg/mL
same,MBC,Escherichia coli,> 10 µg/mL
same,MIC,Escherichia coli,> 10 µg/mL
same,MBC,Staphylococcus aureus,2.5 µg/mL
same,MIC,Staphylococcus aureus,< 2.5 µg/mL
CCCC[C@@H]1CN([C@H](CC2CCCCC2)CN2CCCC2CN2C(N)=NC[C@@H]2Cc2ccccc2)C(=N)N1CCc1cc(C(F)(F)F)cc(C(F)(F)F)c1 (some centres not stated),MBC,Enterococcus faecalis,< 2.5 µg/mL
same,MIC,Enterococcus faecalis,< 2.5 µg/mL
same,MBC,Escherichia coli,5 µg/mL
same,MIC,Escherichia coli,5 µg/mL
same,MBC,Staphylococcus aureus,2.5 µg/mL
same,MIC,Staphylococcus aureus,< 2.5 µg/mL
C[C@H]1CN=C(N)N1CC1CCCN1C[C@@H](CC1CCCCC1)N1C[C@@H](CC2CCCCC2)N(CCc2cc(C(F)(F)F)cc(C(F)(F)F)c2)C1=N (some centres not stated),MBC,Enterococcus faecalis,> 10 µg/mL
same,MIC,Enterococcus faecalis,< 2.5 µg/mL
same,MBC,Escherichia coli,5 µg/mL
same,MIC,Escherichia coli,5 µg/mL
same,MBC,Staphylococcus aureus,2.5 µg/mL
same,MIC,Staphylococcus aureus,< 2.5 µg/mL
CCCC[C@@H]1CN([C@H](Cc2ccc3ccccc3c2)CN2CCCC2CN2C(N)=NC[C@@H]2Cc2ccccc2)C(=N)N1CC(C)c1ccc(CC(C)C)cc1 (some centres not stated),MBC,Enterococcus faecalis,> 10 µg/mL
same,MIC,Enterococcus faecalis,< 2.5 µg/mL
same,MBC,Escherichia coli,> 10 µg/mL
same,MIC,Escherichia coli,> 10 µg/mL
same,MBC,Staphylococcus aureus,2.5 µg/mL
same,MIC,Staphylococcus aureus,< 2.5 µg/mL
C[C@H]1CN=C(N)N1CC1CCCN1C[C@H](CC1CCCCC1)N1C[C@H](CC2CCCCC2)N(CCc2cc(C(F)(F)F)cc(C(F)(F)F)c2)C1=N (some centres not stated),MBC,Enterococcus faecalis,> 10 µg/mL
same,MIC,Enterococcus faecalis,< 2.5 µg/mL
same,MBC,Escherichia coli,> 10 µg/mL
same,MIC,Escherichia coli,> 10 µg/mL
same,MBC,Staphylococcus aureus,< 2.5 µg/mL
same,MIC,Staphylococcus aureus,< 2.5 µg/mL
CC(C)Cc1ccc(C(C)CN2C(=N)N([C@H](CC3CCCCC3)CN3CCCC3CN3C(N)=NC[C@@H]3C)C[C@H]2CC2CCCCC2)cc1 (some centres not stated),MBC,Enterococcus faecalis,< 2.5 µg/mL
same,MIC,Enterococcus faecalis,< 2.5 µg/mL
same,MBC,Escherichia coli,5 µg/mL
same,MIC,Escherichia coli,5 µg/mL
same,MBC,Staphylococcus aureus,2.5 µg/mL
same,MIC,Staphylococcus aureus,< 2.5 µg/mL
CC(C)Cc1ccc(C(C)CN2C(=N)N([C@H](Cc3ccc4ccccc4c3)CN3CCCC3CN3C(N)=NC[C@@H]3C)C[C@@H]2CC2CCCCC2)cc1 (some centres not stated),MBC,Enterococcus faecalis,2.5 µg/mL
same,MIC,Enterococcus faecalis,> 10 µg/mL
same,MBC,Escherichia coli,> 10 µg/mL
same,MIC,Escherichia coli,> 10 µg/mL
same,MBC,Staphylococcus aureus,2.5 µg/mL
same,MIC,Staphylococcus aureus,2.5 µg/mL
N=C1N(CCc2cc(C(F)(F)F)cc(C(F)(F)F)c2)[C@@H](CC2CCCCC2)CN1[C@@H](CC1CCCCC1)CN1CCCC1CN1C(N)=NC[C@@H]1Cc1ccccc1 (some centres not stated),MBC,Enterococcus faecalis,> 10 µg/mL
same,MIC,Enterococcus faecalis,< 2.5 µg/mL
same,MBC,Escherichia coli,> 10 µg/mL
same,MIC,Escherichia coli,> 10 µg/mL
same,MBC,Staphylococcus aureus,< 2.5 µg/mL
same,MIC,Staphylococcus aureus,< 2.5 µg/mL
CC(C)Cc1ccc(C(C)CN2C(=N)N([C@H](CC3CCCCC3)CN3CCCC3CN3C(N)=NC[C@@H]3Cc3ccccc3)C[C@H]2CC2CCCCC2)cc1 (some centres not stated),MBC,Enterococcus faecalis,> 10 µg/mL
same,MIC,Enterococcus faecalis,2.5 µg/mL
same,MBC,Escherichia coli,5 µg/mL
same,MIC,Escherichia coli,5 µg/mL
same,MBC,Staphylococcus aureus,< 2.5 µg/mL
same,MIC,Staphylococcus aureus,< 2.5 µg/mL
